According to the NIST ThermoML archive (doi:10.1021/je060411g):
Numbers after ± are expanded uncertainties.

Assay: molar heat capacity at constant pressure
Settings: 101.33 kPa, Crystal 2

CC(C)(C)CO [2,2-dimethyl-1-propanol]
Vacuum adiabatic calorimetry
Settings | molar heat capacity at constant pressure [J/K/mol]
6.04 K | 1.42 ± 0.03
6.22 K | 1.34 ± 0.04
6.72 K | 1.62 ± 0.04
6.93 K | 1.79 ± 0.04
7.63 K | 2.48 ± 0.06
7.66 K | 2.49 ± 0.06
8.46 K | 3.25 ± 0.07
8.71 K | 3.26 ± 0.07
9.38 K | 3.5 ± 0.08
9.84 K | 3.94 ± 0.08
10.52 K | 4.52 ± 0.1
11.19 K | 4.61 ± 0.1
11.74 K | 4.61 ± 0.1
12.6 K | 5.48 ± 0.12
12.96 K | 6.1 ± 0.13
13.95 K | 7.71 ± 0.16
14.12 K | 7.8 ± 0.16
15.22 K | 9.22 ± 0.19
15.26 K | 9.22 ± 0.19
16.54 K | 10.78 ± 0.22
16.63 K | 10.92 ± 0.23
17.89 K | 12.37 ± 0.26
18.17 K | 12.68 ± 0.26
19.28 K | 14.02 ± 0.29
19.75 K | 14.6 ± 0.3
20.7 K | 15.68 ± 0.32
21.36 K | 16.44 ± 0.34
22.16 K | 17.26 ± 0.35
23.02 K | 18.27 ± 0.37
23.65 K | 18.89 ± 0.39
24.72 K | 20.07 ± 0.41
25.17 K | 20.52 ± 0.42
26.45 K | 21.86 ± 0.44
26.71 K | 22.12 ± 0.45
27.26 K | 22.45 ± 0.45
27.45 K | 22.66 ± 0.46
28.26 K | 23.73 ± 0.48
28.44 K | 23.84 ± 0.48
29.84 K | 25.29 ± 0.51
30.14 K | 25.52 ± 0.51
31.75 K | 26.93 ± 0.54
33.36 K | 28.48 ± 0.57
35.01 K | 29.81 ± 0.6
36.67 K | 31.13 ± 0.63
38.35 K | 32.76 ± 0.66
40.05 K | 33.71 ± 0.68
41.77 K | 34.97 ± 0.7
43.5 K | 36.21 ± 0.73
45.25 K | 37.39 ± 0.75
47.01 K | 38.58 ± 0.78
48.78 K | 39.8 ± 0.8
50.56 K | 40.96 ± 0.82
52.36 K | 42.15 ± 0.85
54.16 K | 43.42 ± 0.87
55.98 K | 44.6 ± 0.9
57.81 K | 45.76 ± 0.92
59.64 K | 46.96 ± 0.94
61.49 K | 48 ± 0.96
63.34 K | 48.9 ± 0.98
65.21 K | 49.05 ± 0.99
67.11 K | 48.13 ± 0.97
69.02 K | 47.57 ± 0.96
70.93 K | 51.84 ± 1
72.82 K | 53.62 ± 1.1
74.71 K | 54.48 ± 1.1
76.62 K | 55.54 ± 1.1
78.53 K | 57.23 ± 1.1
80.43 K | 58.98 ± 1.2
82.34 K | 59.82 ± 1.2
84.25 K | 60.91 ± 1.2
86.17 K | 61.94 ± 1.2
88.09 K | 63.01 ± 1.3
90.01 K | 64.26 ± 1.3
91.94 K | 65.3 ± 1.3
93.72 K | 66.04 ± 1.3
93.87 K | 66.34 ± 1.3
93.99 K | 65.67 ± 1.3
95.11 K | 67.03 ± 1.4
95.8 K | 67.7 ± 1.4
97.08 K | 68.3 ± 1.4
97.74 K | 68.54 ± 1.4
99.03 K | 69.37 ± 1.4
99.68 K | 69.74 ± 1.4
100.97 K | 70.67 ± 1.4
102.92 K | 71.57 ± 1.4
104.87 K | 72.73 ± 1.5
106.82 K | 73.77 ± 1.5
108.77 K | 74.92 ± 1.5
110.72 K | 75.98 ± 1.5
112.68 K | 77.06 ± 1.6
114.63 K | 78.14 ± 1.6
116.59 K | 79.23 ± 1.6
118.55 K | 80.35 ± 1.6
120.51 K | 81.5 ± 1.6
122.47 K | 82.44 ± 1.7
124.43 K | 83.56 ± 1.7
126.39 K | 84.65 ± 1.7
128.36 K | 85.69 ± 1.7
130.32 K | 86.79 ± 1.8
131.73 K | 87.42 ± 1.8
132.15 K | 87.41 ± 1.8
132.29 K | 87.89 ± 1.8
133.36 K | 88.24 ± 1.8
134.27 K | 88.87 ± 1.8
135.34 K | 89.35 ± 1.8
136.24 K | 89.94 ± 1.8
137.31 K | 90.43 ± 1.8
139.28 K | 91.45 ± 1.8
141.25 K | 92.54 ± 1.9
143.22 K | 93.56 ± 1.9
145.19 K | 94.64 ± 1.9
147.17 K | 95.67 ± 1.9
149.14 K | 96.7 ± 1.9
151.11 K | 97.64 ± 2
153.09 K | 98.81 ± 2

Settings | molar heat capacity at constant pressure [J/K/mol]
10 K | 4.09 ± 0.26
15 K | 9 ± 0.44
20 K | 14.89 ± 0.61
25 K | 20.35 ± 0.7
30 K | 25.41 ± 0.72
35 K | 29.8 ± 0.82
40 K | 33.67 ± 0.91
45 K | 37.23 ± 0.99
50 K | 40.59 ± 1.1
55 K | 43.96 ± 1.1
60 K | 47.18 ± 1.2
65 K | 49.1 ± 1.3
70 K | 49.5 ± 1.3
75 K | 54.63 ± 1.4
80 K | 58.6 ± 1.5
85 K | 61.31 ± 1.5
90 K | 64.25 ± 2
95 K | 66.91 ± 2
100 K | 69.96 ± 2.1
105 K | 72.8 ± 2.1
110 K | 75.58 ± 2.2
120 K | 81.21 ± 2.3
130 K | 86.6 ± 2.4
140 K | 91.85 ± 2.5
150 K | 97.11 ± 2.6
